Test results reported in patent publication US20110071108A1, “Beta-Cyclodextrin Derivatives as Antibacterial Agents” (Pinnacle Pharmaceuticals, Inc., priority 2005, published 2011).

What was measured:
Assay in all cases: Bacterial panel testing, MIC by broth microdilution
Type in all cases: cell-based
Conditions in all cases: 20-24 hours growth
Pseudomonas aeruginosa = tested on: Pseudomonas aeruginosa
Experimental: (§1) One to three colonies of bacteria were picked from an Mueller-Hinton or Brain Heart infusion agar plate (depending on the bacterial strain) and transferred to 3 ml Mueller-Hinton broth or Brain Heart infusion media (depending on the bacterial strain). Bacteria were allowed to grow for 2-4 hours in an incubator at 37° C. Bacteria-inoculated media were dispersed in 0.9% saline to match McFarland standard density. 100 μl standardized inoculation was added to 20 ml media (dilution 1). 10 μl of the new dilution was added to 990 μl media and mixed (dilution 2). 10 μl of dilution 2 was spread on an agar plate and allowed to grow overnight. Colonies were then […].
(§2) Test compound was diluted to 10 μg/ml in dimethylsulfoxide. Four μl of Rifampicin antibiotic was loaded into row H, column 2.
(§3) All wells were then filled with 100 μl of inoculated media (dilution 1 from Example 1). A further 100 μl of the inoculated media was then added to column 2 and the contents are pipetted to thoroughly mix the contents. A full 100 μl was then transferred from column 2 and mixed into column 3. This process was continued from left to right until columns 2-12 were serially diluted, and the final draw from column 12 was discarded. The plates were covered with 3M sealing tape (plates containing Enterococcus faecium were sealed with Air Pore sealing tape) and allowed to grow for 20-24 hours. Cytotoxic wells (clear wells) are then scored and the potency of the compound was determined.

Enterococcus faecium = tested on: Enterococcus faecium
Experimental: as §1, §2, §3

Staphylococcus aureus = tested on: Staphylococcus aureus
Experimental: as §1, §2, §3

Salmonella choleraesuis = tested on: Salmonella choleraesuis
Experimental: as §1, §2, §3

Eschericia coli = tested on: Eschericia coli
Experimental: as §1, §2, §3

CC(C)(C)OC(=O)NC(CCCN)C(=O)NCC1OC2OC3C(CNC(=O)C(CCCN)NC(=O)OC(C)(C)C)OC(OC4C(CNC(=O)C(CCCN)NC(=O)OC(C)(C)C)OC(OC5C(CNC(=O)C(CCCN)NC(=O)OC(C)(C)C)OC(OC6C(CNC(=O)C(CCCN)NC(=O)OC(C)(C)C)OC(OC7C(CNC(=O)C(CCCN)NC(=O)OC(C)(C)C)OC(OC8C(CNC(=O)C(CCCN)NC(=O)OC(C)(C)C)OC(OC1C(O)C2O)C(O)C8O)C(O)C7O)C(O)C6O)C(O)C5O)C(O)C4O)C(O)C3O.Cl.Cl.Cl.Cl.Cl.Cl.Cl (centres unmarked)
>200 µg/mL: MIC PA (Pseudomonas aeruginosa) | MIC EF (Enterococcus faecium) | MIC SA (Staphylococcus aureus)

Cl.Cl.Cl.Cl.Cl.Cl.Cl.NC(CO)C(=O)NCC1OC2OC3C(CNC(=O)C(N)CO)OC(OC4C(CNC(=O)C(N)CO)OC(OC5C(CNC(=O)C(N)CO)OC(OC6C(CNC(=O)C(N)CO)OC(OC7C(CNC(=O)C(N)CO)OC(OC8C(CNC(=O)C(N)CO)OC(OC1C(O)C2O)C(O)C8O)C(O)C7O)C(O)C6O)C(O)C5O)C(O)C4O)C(O)C3O (centres unmarked)
>200 µg/mL: MIC PA (Pseudomonas aeruginosa) | MIC SC (Salmonella choleraesuis) | MIC EC (Eschericia coli) | MIC SA (Staphylococcus aureus)

CC(O)C(N)C(=O)NCC1OC2OC3C(CNC(=O)C(N)C(C)O)OC(OC4C(CNC(=O)C(N)C(C)O)OC(OC5C(CNC(=O)C(N)C(C)O)OC(OC6C(CNC(=O)C(N)C(C)O)OC(OC7C(CNC(=O)C(N)C(C)O)OC(OC8C(CNC(=O)C(N)C(C)O)OC(OC1C(O)C2O)C(O)C8O)C(O)C7O)C(O)C6O)C(O)C5O)C(O)C4O)C(O)C3O.Cl.Cl.Cl.Cl.Cl.Cl.Cl (centres unmarked)
>200 µg/mL: MIC PA (Pseudomonas aeruginosa) | MIC SC (Salmonella choleraesuis) | MIC EC (Eschericia coli) | MIC SA (Staphylococcus aureus)

O=C(C[n+]1ccccc1)NCC1OC2OC3C(CNC(=O)C[n+]4ccccc4)OC(OC4C(CNC(=O)C[n+]5ccccc5)OC(OC5C(CNC(=O)C[n+]6ccccc6)OC(OC6C(CNC(=O)C[n+]7ccccc7)OC(OC7C(CNC(=O)C[n+]8ccccc8)OC(OC8C(CNC(=O)C[n+]9ccccc9)OC(OC1C(O)C2O)C(O)C8O)C(O)C7O)C(O)C6O)C(O)C5O)C(O)C4O)C(O)C3O.[Cl-].[Cl-].[Cl-].[Cl-].[Cl-].[Cl-].[Cl-] (centres unmarked)
>200 µg/mL: MIC PA (Pseudomonas aeruginosa) | MIC SC (Salmonella choleraesuis) | MIC EF (Enterococcus faecium) | MIC EC (Eschericia coli) | MIC SA (Staphylococcus aureus)

Cl.Cl.Cl.Cl.Cl.Cl.Cl.O=C(CNCc1ccccc1)NCC1OC2OC3C(CNC(=O)CNCc4ccccc4)OC(OC4C(CNC(=O)CNCc5ccccc5)OC(OC5C(CNC(=O)CNCc6ccccc6)OC(OC6C(CNC(=O)CNCc7ccccc7)OC(OC7C(CNC(=O)CNCc8ccccc8)OC(OC8C(CNC(=O)CNCc9ccccc9)OC(OC1C(O)C2O)C(O)C8O)C(O)C7O)C(O)C6O)C(O)C5O)C(O)C4O)C(O)C3O (centres unmarked)
>200 µg/mL: MIC PA (Pseudomonas aeruginosa) | MIC SC (Salmonella choleraesuis) | MIC EF (Enterococcus faecium) | MIC EC (Eschericia coli) | MIC SA (Staphylococcus aureus)

COC(=O)c1cccc(NCC2OC3OC4C(CNc5cccc(C(=O)OC)c5)OC(OC5C(CNc6cccc(C(=O)OC)c6)OC(OC6C(CNc7cccc(C(=O)OC)c7)OC(OC7C(CNc8cccc(C(=O)OC)c8)OC(OC8C(CNc9cccc(C(=O)OC)c9)OC(OC9C(CNc%10cccc(C(=O)OC)c%10)OC(OC2C(O)C3O)C(O)C9O)C(O)C8O)C(O)C7O)C(O)C6O)C(O)C5O)C(O)C4O)c1 (centres unmarked)
>200 µg/mL: MIC PA (Pseudomonas aeruginosa) | MIC SC (Salmonella choleraesuis) | MIC EC (Eschericia coli) | MIC SA (Staphylococcus aureus)

OC1C2OC(CN3CCCc4ccccc43)C(OC3OC(CN4CCCc5ccccc54)C(OC4OC(CN5CCCc6ccccc65)C(OC5OC(CN6CCCc7ccccc76)C(OC6OC(CN7CCCc8ccccc87)C(OC7OC(CN8CCCc9ccccc98)C(OC8OC(CN9CCCc%10ccccc%109)C(O2)C(O)C8O)C(O)C7O)C(O)C6O)C(O)C5O)C(O)C4O)C(O)C3O)C1O (centres unmarked)
>200 µg/mL: MIC PA (Pseudomonas aeruginosa) | MIC SC (Salmonella choleraesuis) | MIC EF (Enterococcus faecium) | MIC EC (Eschericia coli)

OC1C2OC(CNC3CCCc4ccccc43)C(OC3OC(CNC4CCCc5ccccc54)C(OC4OC(CNC5CCCc6ccccc65)C(OC5OC(CNC6CCCc7ccccc76)C(OC6OC(CNC7CCCc8ccccc87)C(OC7OC(CNC8CCCc9ccccc98)C(OC8OC(CNC9CCCc%10ccccc%109)C(O2)C(O)C8O)C(O)C7O)C(O)C6O)C(O)C5O)C(O)C4O)C(O)C3O)C1O (centres unmarked)
>200 µg/mL: MIC PA (Pseudomonas aeruginosa) | MIC EF (Enterococcus faecium) | MIC EC (Eschericia coli)

CCCCCCCCCCCCCCCC[N+]12CC[N+](CC(=O)NCC3OC4OC5C(CNC(=O)C[N+]67CC[N+](CCCCCCCCCCCCCCCC)(CC6)CC7)OC(OC6C(CNC(=O)C[N+]78CC[N+](CCCCCCCCCCCCCCCC)(CC7)CC8)OC(OC7C(CNC(=O)C[N+]89CC[N+](CCCCCCCCCCCCCCCC)(CC8)CC9)OC(OC8C(CNC(=O)C[N+]9%10CC[N+](CCCCCCCCCCCCCCCC)(CC9)CC%10)OC(OC9C(CNC(=O)C[N+]%10%11CC[N+](CCCCCCCCCCCCCCCC)(CC%10)CC%11)OC(OC%10C(CNC(=O)C[N+]%11%12CC[N+](CCCCCCCCCCCCCCCC)(CC%11)CC%12)OC(OC3C(O)C4O)C(O)C%10O)C(O)C9O)C(O)C8O)C(O)C7O)C(O)C6O)C(O)C5O)(CC1)CC2 (centres unmarked)
>200 µg/mL: MIC PA (Pseudomonas aeruginosa) | MIC SC (Salmonella choleraesuis) | MIC EF (Enterococcus faecium) | MIC EC (Eschericia coli)

Cc1ccc(NCC2OC3OC4C(CNc5ccc(C)cc5)OC(OC5C(CNc6ccc(C)cc6)OC(OC6C(CNc7ccc(C)cc7)OC(OC7C(CNc8ccc(C)cc8)OC(OC8C(CNc9ccc(C)cc9)OC(OC9C(CNc%10ccc(C)cc%10)OC(OC2C(O)C3O)C(O)C9O)C(O)C8O)C(O)C7O)C(O)C6O)C(O)C5O)C(O)C4O)cc1 (centres unmarked)
>200 µg/mL: MIC PA (Pseudomonas aeruginosa) | MIC SC (Salmonella choleraesuis) | MIC EF (Enterococcus faecium) | MIC EC (Eschericia coli)

Cl.Cl.Cl.Cl.Cl.Cl.NCCCCCCSCC1OC2OC3C(CSCCCCCCN)OC(OC4C(CSCCCCCCN)OC(OC5C(CSCCCCCCN)OC(OC6C(CSCCCCCCN)OC(OC7C(CSCCCCCCN)OC(OC1C(O)C2O)C(O)C7O)C(O)C6O)C(O)C5O)C(O)C4O)C(O)C3O (centres unmarked)
>200 µg/mL: MIC SC (Salmonella choleraesuis) | MIC EF (Enterococcus faecium) | MIC EC (Eschericia coli) | MIC SA (Staphylococcus aureus)

Cl.Cl.Cl.Cl.Cl.Cl.Cl.NCCCCCCCSCC1OC2OC3C(CSCCCCCCCN)OC(OC4C(CSCCCCCCCN)OC(OC5C(CSCCCCCCCN)OC(OC6C(CSCCCCCCCN)OC(OC7C(CSCCCCCCCN)OC(OC8C(CSCCCCCCCN)OC(OC1C(O)C2O)C(O)C8O)C(O)C7O)C(O)C6O)C(O)C5O)C(O)C4O)C(O)C3O (centres unmarked)
>200 µg/mL: MIC PA (Pseudomonas aeruginosa) | MIC SC (Salmonella choleraesuis) | MIC EF (Enterococcus faecium) | MIC SA (Staphylococcus aureus)

OC1C2OC(CN3CCN(C4CCCCC4)CC3)C(OC3OC(CN4CCN(C5CCCCC5)CC4)C(OC4OC(CN5CCN(C6CCCCC6)CC5)C(OC5OC(CN6CCN(C7CCCCC7)CC6)C(OC6OC(CN7CCN(C8CCCCC8)CC7)C(OC7OC(CN8CCN(C9CCCCC9)CC8)C(OC8OC(CN9CCN(C%10CCCCC%10)CC9)C(O2)C(O)C8O)C(O)C7O)C(O)C6O)C(O)C5O)C(O)C4O)C(O)C3O)C1O (centres unmarked)
>200 µg/mL: MIC PA (Pseudomonas aeruginosa) | MIC SC (Salmonella choleraesuis) | MIC EF (Enterococcus faecium) | MIC EC (Eschericia coli)

Cl.Cl.Cl.Cl.Cl.Cl.Cl.N=C(N)NCCCCCCSCC1OC2OC3C(CSCCCCCCNC(=N)N)OC(OC4C(CSCCCCCCNC(=N)N)OC(OC5C(CSCCCCCCNC(=N)N)OC(OC6C(CSCCCCCCNC(=N)N)OC(OC7C(CSCCCCCCNC(=N)N)OC(OC8C(CSCCCCCCNC(=N)N)OC(OC1C(O)C2O)C(O)C8O)C(O)C7O)C(O)C6O)C(O)C5O)C(O)C4O)C(O)C3O (centres unmarked)
>200 µg/mL: MIC PA (Pseudomonas aeruginosa) | MIC SC (Salmonella choleraesuis) | MIC EF (Enterococcus faecium) | MIC EC (Eschericia coli)

CC(C)[C@H](C)NCC1OC2OC3C(CN[C@@H](C)C(C)C)OC(OC4C(CN[C@@H](C)C(C)C)OC(OC5C(CN[C@@H](C)C(C)C)OC(OC6C(CN[C@@H](C)C(C)C)OC(OC7C(CN[C@@H](C)C(C)C)OC(OC8C(CN[C@@H](C)C(C)C)OC(OC1C(O)C2O)C(O)C8O)C(O)C7O)C(O)C6O)C(O)C5O)C(O)C4O)C(O)C3O (some centres unmarked)
>200 µg/mL: MIC PA (Pseudomonas aeruginosa) | MIC EF (Enterococcus faecium)

Cl.Cl.Cl.Cl.Cl.Cl.Cl.NCCSCCCSCC1OC2OC3C(CSCCCSCCN)OC(OC4C(CSCCCSCCN)OC(OC5C(CSCCCSCCN)OC(OC6C(CSCCCSCCN)OC(OC7C(CSCCCSCCN)OC(OC8C(CSCCCSCCN)OC(OC1C(O)C2O)C(O)C8O)C(O)C7O)C(O)C6O)C(O)C5O)C(O)C4O)C(O)C3O (centres unmarked)
>200 µg/mL: MIC PA (Pseudomonas aeruginosa) | MIC SC (Salmonella choleraesuis) | MIC EF (Enterococcus faecium) | MIC SA (Staphylococcus aureus)
